Test results reported in BindingDB's records for doi:10.1021/jm0201924 (Senju Pharmaceutical, 2003).

The molecules below were run against Calpain-1 (Sus scrofa) (assay: In vitro inhibition of porcine mu-calpain.).

| Compound | IC50 |
| --- | --- |
| CC(C)[C@H](NS(=O)(=O)c1ccc(Cl)cc1)C(=O)N[C@@H](C=O)Cc1ccccc1 [2-(4-Chloro-benzenesulfonylamino)-N-(1-formyl-2-phenyl-ethyl)-3-methyl-butyramide] | 14 nM |
| CC(C)C[C@H](C=O)NC(=O)[C@@H](NS(=O)(=O)c1ccc(Cl)cc1)C(C)C [2-(4-Chloro-benzenesulfonylamino)-N-(1-formyl-3-methyl-butyl)-3-methyl-butyramide] | 31 nM |
| CC(C)[C@H](NS(=O)(=O)c1ccc(Cl)cc1)C(=O)N[C@@H](C=O)Cc1c[nH]c2ccccc12 [2-(4-Chloro-benzenesulfonylamino)-N-[1-formyl-2-(1H-indol-3-yl)-ethyl]-3-methyl-butyramide] | 13 nM |
| CC(C)[C@H](NS(=O)(=O)c1ccc(F)cc1)C(=O)N[C@H](C)C=O [2-(4-Fluoro-benzenesulfonylamino)-3-methyl-N-(1-methyl-2-oxo-ethyl)-butyramide] | 630 nM |
| CC(C)[C@H](NS(=O)(=O)c1ccc(F)cc1)C(=O)N[C@@H](C=O)Cc1ccccc1 [2-(4-Fluoro-benzenesulfonylamino)-N-(1-formyl-2-phenyl-ethyl)-3-methyl-butyramide] | 27 nM |
| CC(C)[C@H](NS(=O)(=O)c1ccc(F)cc1)C(=O)N[C@@H](C=O)Cc1c[nH]c2ccccc12 [2-(4-Fluoro-benzenesulfonylamino)-N-[1-formyl-2-(1H-indol-3-yl)-ethyl]-3-methyl-butyramide] | 23 nM |
| CC(C)C[C@H](C=O)NC(=O)[C@H](C(C)C)N(C)S(=O)(=O)c1ccc(F)cc1 [2-[(4-Fluoro-benzenesulfonyl)-methyl-amino]-N-(1-formyl-3-methyl-butyl)-3-methyl-butyramide] | 21000 nM |
| CC(C)[C@H](NS(=O)(=O)c1ccc2ccccc2c1)C(=O)N[C@@H](C=O)Cc1ccccc1 [N-(1-Formyl-2-phenyl-ethyl)-3-methyl-2-(naphthalene-2-sulfonylamino)-butyramide] | 14 nM |
| Cc1ccc(S(=O)(=O)N[C@H](C(=O)N[C@@H](C=O)Cc2ccccc2)C(C)C)cc1 [N-(1-Formyl-2-phenyl-ethyl)-3-methyl-2-(toluene-4-sulfonylamino)-butyramide] | 18 nM |
| CC(C)C[C@H](C=O)NC(=O)[C@@H](NS(C)(=O)=O)C(C)C [N-(1-Formyl-3-methyl-butyl)-2-methanesulfonylamino-3-methyl-butyramide] | 830 nM |
| CC(C)C[C@H](C=O)NC(=O)[C@@H](NS(=O)(=O)c1ccc2ccccc2c1)C(C)C [N-(1-Formyl-3-methyl-butyl)-3-methyl-2-(naphthalene-2-sulfonylamino)-butyramide] | 10 nM |
| Cc1ccc(S(=O)(=O)N[C@H](C(=O)N[C@@H](C=O)CC(C)C)C(C)C)cc1 [N-(1-Formyl-3-methyl-butyl)-3-methyl-2-(toluene-4-sulfonylamino)-butyramide] | 28 nM |
